Non-standard residues stand in square brackets, D forms with d. No end group written: not given here. Dhb = C/C=C(\N)C(=O)O; Dha = C=C(N)C(=O)O
Columns and labels:
M. luteus = experiment: MIC determination in 96-well plates; format: cell-based, Micrococcus luteus; conditions: for MIC M. luteus: 96-well plate, bioassay medium, 5.0 × 10^5 CFU mL^−1, 37 °C, 24 h, OD600, n=3
Description: (§1) The CFPS system is for quick screening of potential antimicrobial lanthipeptides, and we then purified enough compounds of the screened nisin analogs for structure identification and activity assays. We prepared mLanAs for the novel lanthipeptides (RL6, RL8, RL13, and RL14) in E. coli (Table S2, Supporting Information) and removed their leader peptides in vitro, as it is more economical to mass produce targeted lanthipeptides using this previously reported method^[ ^4 ^] rather than to use CFPS to mass produce lanthipeptides. Nisin and most lanthipeptides are not pure products in the commercially available and standard products, they are a mixture of different dehydrating ingredients resulting from incomplete NisB catalysis. Therefore, we verified that the decisive antibacterial component in the currently commercially available nisin is the eightfold dehydrated component (Figure S5, Supporting Information). […] We treated the novel lanthipeptides with the thiol‐alkylating reagent N‐ethylmaleimide (NEM) to sequester any noncyclic Cys residues, and evaluated ring topology using LC‐MS (Figure S7, Supporting Information). […] We quantified these four novel lanthipeptides using the purified eight‐fold dehydrated component of nisin as a standard.
(§2) MICs were determined according to a previously described method^[ ^38 ^] with minor modifications. Briefly, the test medium for clinical strain species was MHB broth (BD Difco), LB broth was used for E. coli, and bioassay medium containing 1.2% tryptone, 0.75% yeast extract, 0.75% NaCl, 0.3% NaH2PO4, and 0.75% glucose was used for M. luteus. Bacteria were grown overnight to the early stationary phase and adjusted in corresponding culture medium to 5.0 × 10^5 CFU mL^−1 in the wells of 96‐well microtiter plates, mixed with varying concentrations of test compounds, and incubated at 37 °C for 24 h. Cell growth was evaluated by measuring the optical density at 600 nm, and the MIC was defined as the lowest compound concentration at which no bacterial growth was observed.
(§3) Table S3. MIC Values of Several Lanthipeptides Against Microorganisms
(§4) MIC* mg/L(μM) M. luteus E. faecalis S. aureus MRSA
(§5) Note: * The test lanthipeptide is a mixture of different dehydration molecules . Quantification of
(§6) lanthipeptides was performed using the eight-fold dehydrated molecules (n=3). The data

[1] = test system: E. faecalis (clinical pathogenic strain); experiment: MIC determination in 96-well plates; format: cell-based, Enterococcus faecalis; conditions: for MIC E. faecalis: 96-well plate, MHB broth, 5.0 × 10^5 CFU mL^−1, 37 °C, 24 h, OD600, quantified as eight-fold dehydrated molecules, n=3
Description: as §1, §2, §3, §4, §5, §6

[2] = test system: S. aureus (clinical pathogenic strain); experiment: MIC determination in 96-well plates; format: cell-based, Staphylococcus aureus; conditions: 96-well plate, MHB broth, 5.0 × 10^5 CFU mL^−1, 37 °C, 24 h, OD600, quantified as eight-fold dehydrated molecules, n=3
Description: as §1, §2, §3, §4, §5, §6

[3] = test system: MRSA (clinical pathogenic strain); experiment: MIC determination in 96-well plates; format: cell-based, methicillin‐resistant S. aureus; conditions: 96-well plate, MHB broth, 5.0 × 10^5 CFU mL^−1, 37 °C, 24 h, OD600, quantified as eight-fold dehydrated molecules, n=3
Description: as §1, §2, §3, §4, §5, §6

[4] = test system: Micrococcus luteus NCIB 8166; experiment: Agar diffusion bioassay of CFPS mixture; format: cell-based; conditions: agar diffusion method; CFPS reaction 6 h
Method: We evaluated the performance of our CFPS platform for nisin biosynthesis. Each plasmid (0.5 nmol L^−1) (pJL1‐nisZ, pET28a‐nisB, pET28a‐nisC, and pET28a‐nisP) was added into the CFPS platform and incubated for 6 h (Figure 1A). The 400 µL of reaction mixture was concentrated to 20 µL and the concentrated mixture was then detected by tandem mass spectrometry (LC‐MS‐MS). The results confirmed that fully modified nisin Z was produced in the CFPS mixture (Figure 1B).
These hybrid precursor peptides were then cloned into the pJL1 plasmid. Bagelicin, a nisin analog with antibacterial activity that was identified using a previously described in vivo screening system,^[ ^5 ^] was chosen as the positive control for validation. The pJL1‐nisZ plasmid in our CFPS platform was replaced with the hybrid precursor peptide plasmids (pRL1‐pRL18 and pJL1‐bagelicin). After incubation for 6 h, the bagelicin CFPS mixture (positive control) was analyzed by LC‐MS‐MS and bioassays.
The activity levels of nisin and new lanthipeptides were determined by a previously described agar diffusion method, with minor modifications.^[ ^37 ^] Briefly, a stock nisin solution 1000 IU mL^−1) was prepared by adding 50 mg of commercial nisin (10^6 IU g^−1; Sigma‐Aldrich, St. Louis, MO, USA) into 50 mL of sterile 0.02 mol L^−1 HCl. […]

E. coli DH5α = E. coli DH5α growth (OD600) in LB medium with EDTA and purified lanthipeptide; format: cell-based, Escherichia coli
Method: Figure 4 Screening of nisin mutants using the CFPS system. A) Schematic illustration of the screening for nisin mutants. B) Nisin and nisin mutants. Dha, dehydrolalanine; Dhb, dehydrobutyrine; Abu, 2‐aminobutyric acid. C) Heat‐map of antimicrobial activity of nisin mutants against E. coli in the second round of screening. After adding the CFPS mixture to E. coli and incubating for 8 h, the ΔOD600 value represents the OD600 of E. coli with added nisin mutant CFPS mixture minus the OD600 (control group) of E. coli with nisin CFPS mixture in the same plate. Yellow areas represent an inhibitory effect on E. coli. […] The test lanthipeptide is a mixture of different dehydration molecules, quantification of lanthipeptides was performed using the eightfold dehydrated molecules. […]
Next, to verify the reliability of the CFPS platform for screening, abundant lanthipeptides are required to characterize the structure and anti‐E. coli ability of the mutants. […] The structures were identified by LC‐MS‐MS (Figure 4B; Figure S6, Supporting Information) and the […] rings were detected by NEM reaction (Figure S7, Supporting Information). […]
Figure S8. OD600 of E. coli DH5α in LB Medium with Different Concentrations of EDTA and Nisin after 18 h of Co-culture (n=3) ΔOD600 indicates the difference between readings with different concentrations of blank media. […]

[5] = mixture of dehydration molecules quantified as eight-fold dehydrated molecules
[6] = value in parentheses, quantified as eight-fold dehydrated molecules
[7] = summary of Table S3 in the text

## IT SKSLC TPGCKTGALMT CPIKTAT CGCHFGN (bicyclic or more) [RL13, novel lanthipeptide, nisin analog, core peptide from Streptococcus equinus]
M. luteus; [5]
  MIC M. luteus: 0.24 µg/mL
M. luteus; [6]
  MIC M. luteus: 0.077 µM
[1]
  MIC E. faecalis: 250 µg/mL
[1]; value in parentheses
  MIC E. faecalis: 80.8 µM
[2]
  MIC S. aureus: > 250 µg/mL
[2]; value in parentheses
  MIC S. aureus: > 80.8 µM
[3]
  MIC MRSA: > 250 µg/mL
[3]; value in parentheses
  MIC MRSA: > 80.8 µM

## IT SKSLC TPGCVTGVLMGCALKTIT CNC SVGIGKK (bicyclic or more) [RL14, novel lanthipeptide, nisin analog, core peptide from Enterococcus rotai/Enterococcus moraviensis]
M. luteus; [5]
  MIC M. luteus: 0.015 µg/mL
M. luteus; [7]
  antibacterial activity against M. luteus (in words): outperforming nisin
M. luteus; [6]
  MIC M. luteus: 0.0045 µM
[1]
  MIC E. faecalis: 62.5 µg/mL
[1]; [7]
  antibacterial activity against E. faecalis (in words): outperforming nisin
[1]; value in parentheses
  MIC E. faecalis: 18.69 µM
[2]
  MIC S. aureus: 250 µg/mL
[2]; value in parentheses
  MIC S. aureus: 74.75 µM
[3]
  MIC MRSA: 250 µg/mL
[3]; value in parentheses
  MIC MRSA: 74.75 µM

## IT SVSLC TPGCKTGALMGCNMKTAS CGCHVHVSK (bicyclic or more) [RL6, novel lanthipeptide, nisin analog, core peptide from Leuconostoc gelidum]
M. luteus; [5]
  MIC M. luteus: 0.12 µg/mL
M. luteus; [6]
  MIC M. luteus: 0.037 µM
[1]
  MIC E. faecalis: 250 µg/mL
[1]; value in parentheses
  MIC E. faecalis: 76.17 µM
[2]
  MIC S. aureus: > 250 µg/mL
[2]; value in parentheses
  MIC S. aureus: > 76.17 µM
[3]
  MIC MRSA: > 250 µg/mL
[3]; value in parentheses
  MIC MRSA: > 76.17 µM

## Nisin A: commercialized nisin, class I lanthipeptide, food preservative (I[Dhb]SI[Dha]LCTPGCKTGALMGCNMKTATCHCSIHV[Dha]K; cysteine pairing not given here; also: lanthipeptide thioether crosslinks and dehydrated residues, positions not given here; UniProt P13068 24-57, looked up) [reference compound]
M. luteus; [5]
  MIC M. luteus: 0.06 µg/mL
M. luteus; [6]
  MIC M. luteus: 0.018 µM
[1]
  MIC E. faecalis: 250 µg/mL
[1]; value in parentheses
  MIC E. faecalis: 74.53 µM
[2]
  MIC S. aureus: 125 µg/mL
[2]; value in parentheses
  MIC S. aureus: 37.27 µM
[3]
  MIC MRSA: 125 µg/mL
[3]; value in parentheses
  MIC MRSA: 37.27 µM

## Nisin Z: type I lanthipeptide nisin Z, synthesized by CFPS or from mLanA expressed in E. coli (I[Dhb]SI[Dha]LCTPGCKTGALMGCNMKTATCNCSIHV[Dha]K; cysteine pairing not given here; also: lanthipeptide thioether crosslinks and dehydrated residues, positions not given here; UniProt P29559 24-57, looked up) [reference compound]
[4]
  antibacterial activity of CFPS mixture on M. luteus plate (in words): obvious zone of inhibition
M. luteus; [5]
  MIC M. luteus: 0.12 µg/mL
M. luteus; [6]
  MIC M. luteus: 0.036 µM
[1]
  MIC E. faecalis: 250 µg/mL
[1]; value in parentheses
  MIC E. faecalis: 75.05 µM
[2]
  MIC S. aureus: 250 µg/mL
[2]; value in parentheses
  MIC S. aureus: 75.05 µM
[3]
  MIC MRSA: 125 µg/mL
[3]; value in parentheses
  MIC MRSA: 37.52 µM
E. coli DH5α; 320 μM EDTA, nisin Z 24, 48, 96 μM, 18 h co-culture, n=3 (Figure S8)
  inhibition of E. coli DH5α growth with EDTA (OD600): obvious
E. coli DH5α; 18 h co-culture (Figure S8)
  inhibition of E. coli DH5α growth at 20-fold the reported nisin concentration: did not exhibit

## VT SISLC TPGCKTGILMT CAIKTAT CGCHF [Bagelicin]
[4]
  antibacterial activity of CFPS mixture on M. luteus plate (in words): contained anti‐M. luteus activity

## VT SKSLC TPGCKTGILQT CAIKSAT CGC SIHIGK (bicyclic or more) [RL8, novel lanthipeptide, nisin analog, core peptide from Bacillus cereus]
M. luteus; [5]
  MIC M. luteus: 0.24 µg/mL
M. luteus; [6]
  MIC M. luteus: 0.073 µM
[1]
  MIC E. faecalis: 250 µg/mL
[1]; value in parentheses
  MIC E. faecalis: 76.52 µM
[2]
  MIC S. aureus: > 250 µg/mL
[2]; value in parentheses
  MIC S. aureus: > 76.52 µM
[3]
  MIC MRSA: > 250 µg/mL
[3]; value in parentheses
  MIC MRSA: > 76.52 µM
